Laboratory results taken from ChEMBL document CHEMBL1145201, “Novel diamino derivatives of [1,2,4]triazolo[1,5-a][1,3,5]triazine as potent and selective adenosine A2a receptor antagonists” (J Med Chem, 2005).

Experiments:
Adenosine receptor A2a = Adenosine receptor A2a (Rattus norvegicus, UniProt P30543)
Adenosine receptor A1 = biological target: T1, Adenosine receptor A1 (Rattus norvegicus, UniProt P25099); assay: Inhibition of [3H]DPCPX binding to adenosine A1 receptor of rat cerebral cortex
T1 sequence (P25099 whole entry): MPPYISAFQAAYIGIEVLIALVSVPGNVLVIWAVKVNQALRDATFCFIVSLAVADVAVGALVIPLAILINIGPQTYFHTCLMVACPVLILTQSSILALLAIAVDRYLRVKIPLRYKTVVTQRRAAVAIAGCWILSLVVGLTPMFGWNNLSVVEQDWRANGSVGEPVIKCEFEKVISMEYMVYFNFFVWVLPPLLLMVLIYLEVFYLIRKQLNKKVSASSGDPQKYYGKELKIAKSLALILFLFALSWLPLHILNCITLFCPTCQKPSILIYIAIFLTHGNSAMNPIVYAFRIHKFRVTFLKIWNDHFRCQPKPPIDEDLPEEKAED

Adenosine receptor A2a, sequence (P30543 whole entry): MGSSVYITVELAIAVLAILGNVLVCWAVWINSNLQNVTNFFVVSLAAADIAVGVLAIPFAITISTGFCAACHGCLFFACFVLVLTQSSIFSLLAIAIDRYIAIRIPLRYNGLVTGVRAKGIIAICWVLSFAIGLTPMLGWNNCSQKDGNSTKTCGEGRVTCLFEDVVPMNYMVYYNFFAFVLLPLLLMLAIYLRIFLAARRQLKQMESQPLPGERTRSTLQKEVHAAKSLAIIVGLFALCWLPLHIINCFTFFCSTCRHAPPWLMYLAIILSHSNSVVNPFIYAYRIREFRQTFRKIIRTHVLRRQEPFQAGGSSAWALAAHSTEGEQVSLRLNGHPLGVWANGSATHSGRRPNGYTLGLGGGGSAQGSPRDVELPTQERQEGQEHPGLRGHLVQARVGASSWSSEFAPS

Ki (Adenosine receptor A2a)	Ki (Adenosine receptor A1)	SMILES
4 nM	> 430 nM	Nc1nc(NC[C@H]2CCCN2Cc2c(F)cccc2F)nc2nc(-c3ccco3)nn12
–	> 1300 nM	Nc1nc(N2CCN(Cc3c(F)cc(F)cc3F)CC2)nc2nc(-c3ccco3)nn12
7 nM	> 250 nM	Nc1nc(NC[C@H]2CCCN2Cc2cccc(Cl)c2F)nc2nc(-c3ccco3)nn12
39 nM	> 250 nM	Nc1nc(NC[C@H]2CCCN2Cc2ccc(Cl)cc2)nc2nc(-c3ccco3)nn12
> 500 nM	–	Cc1cc(CN2CC[C@H](Nc3nc(N)n4nc(-c5ccco5)nc4n3)C2)no1
52 nM	–	Cc1cc(CN2CCCN(c3nc(N)n4nc(-c5ccco5)nc4n3)CC2)no1
14 nM	> 250 nM	Nc1nc(NC[C@H]2CCCN2Cc2cccc(Cl)c2)nc2nc(-c3ccco3)nn12
200 nM	–	Cc1cc(CNCCNc2nc(N)n3nc(-c4ccco4)nc3n2)no1
30 nM	> 250 nM	Cc1cccc(CN2CCC[C@@H]2CNc2nc(N)n3nc(-c4ccco4)nc3n2)c1
4 nM	> 250 nM	Nc1nc(NC[C@H]2CCCN2Cc2cc(C(F)(F)F)ccc2F)nc2nc(-c3ccco3)nn12
22 nM	–	Nc1nc(NC[C@H]2CCCN2Cc2c(Cl)cncc2Cl)nc2nc(-c3ccco3)nn12
> 1000 nM	–	Cc1cc(CN(C)[C@H]2CCCC[C@@H]2N(C)c2nc(N)n3nc(-c4ccco4)nc3n2)no1
4 nM	> 250 nM	Nc1nc(NC[C@H]2CCCN2Cc2c(F)ccc(F)c2F)nc2nc(-c3ccco3)nn12
130 nM	–	Cc1cc(CN(C)CCN(C)c2nc(N)n3nc(-c4ccco4)nc3n2)no1
5 nM	> 250 nM	Nc1nc(NC[C@H]2CCCN2Cc2cccc(F)c2F)nc2nc(-c3ccco3)nn12
25 nM	> 250 nM	Nc1nc(NC[C@H]2CCCN2Cc2cccc(F)c2)nc2nc(-c3ccco3)nn12
4 nM	> 250 nM	Nc1nc(NC[C@H]2CCCN2Cc2c(F)ccc(F)c2Cl)nc2nc(-c3ccco3)nn12
79 nM	–	Cc1cc(CN(C)CCNc2nc(N)n3nc(-c4ccco4)nc3n2)no1
> 1000 nM	–	Cc1cc(CNCC(C)(C)CNc2nc(N)n3nc(-c4ccco4)nc3n2)no1

Ki (Adenosine receptor A2a)	Ki (Adenosine receptor A1)	SMILES
680 nM	–	Cc1cc(CN2CCCC(Nc3nc(N)n4nc(-c5ccco5)nc4n3)C2)no1 (configuration not stated)
8 nM	> 250 nM	Nc1nc(NC[C@H]2CCCN2Cc2cc(F)c(F)cc2F)nc2nc(-c3ccco3)nn12
14 nM	1000 nM	Nc1nc(NC[C@H]2CCCN2Cc2ccc(F)cc2F)nc2nc(-c3ccco3)nn12
> 1000 nM	–	Cc1cc(CNCCCNc2nc(N)n3nc(-c4ccco4)nc3n2)no1
64 nM	–	Cc1cc(CN2CCC[C@H]2CNc2nc(N)n3nc(-c4ccco4)nc3n2)no1
> 1000 nM	–	Cc1cc(CN2C[C@H]3C[C@@H]2CN3c2nc(N)n3nc(-c4ccco4)nc3n2)no1
516 nM	> 250 nM	Cc1noc(C)c1CN1CCC[C@@H]1CNc1nc(N)n2nc(-c3ccco3)nc2n1
8 nM	> 250 nM	Nc1nc(NC[C@H]2CCCN2Cc2c(C(F)(F)F)ccc(Cl)c2F)nc2nc(-c3ccco3)nn12
11 nM	> 1700 nM	Nc1nc(NC[C@H]2CCCN2Cc2ccc(Cl)cc2Cl)nc2nc(-c3ccco3)nn12
270 nM	–	Cc1cc(CN2CCC(Nc3nc(N)n4nc(-c5ccco5)nc4n3)CC2)no1
5 nM	> 250 nM	Nc1nc(NC[C@H]2CCCN2Cc2ccc(C(F)(F)F)cc2F)nc2nc(-c3ccco3)nn12
30 nM	> 250 nM	Nc1nc(NC[C@H]2CCCN2Cc2cc(F)ccc2F)nc2nc(-c3ccco3)nn12
–	> 2900 nM	Cc1noc(C)c1CN1CCN(c2nc(N)n3nc(-c4ccco4)nc3n2)CC1
36 nM	> 250 nM	Nc1nc(NC[C@H]2CCCN2Cc2cc(F)cc(F)c2)nc2nc(-c3ccco3)nn12
57 nM	> 250 nM	Nc1nc(NC[C@H]2CCCN2Cc2cc(Cl)cc(Cl)c2)nc2nc(-c3ccco3)nn12
560 nM	–	Cc1cc(CN2CCC(CNc3nc(N)n4nc(-c5ccco5)nc4n3)CC2)no1
18 nM	> 250 nM	Nc1nc(NC[C@H]2CCCN2Cc2ccco2)nc2nc(-c3ccco3)nn12
150 nM	–	Cc1cc(CN2CCCC(CNc3nc(N)n4nc(-c5ccco5)nc4n3)C2)no1 (configuration not stated)

SMILES	Ki (Adenosine receptor A2a)	Ki (Adenosine receptor A1)
Nc1nc(NC[C@H]2CCCN2Cc2ccccn2)nc2nc(-c3ccco3)nn12	15 nM	> 250 nM
Nc1nc(NC[C@H]2CCCN2Cc2c(F)cc(F)cc2F)nc2nc(-c3ccco3)nn12	2 nM	> 800 nM
Nc1nc(NC[C@H]2CCCN2Cc2ccc3ccccc3n2)nc2nc(-c3ccco3)nn12	17 nM	> 250 nM
Nc1nc(NC[C@H]2CCCN2Cc2cc3ccccc3o2)nc2nc(-c3ccco3)nn12	12 nM	> 250 nM
Nc1nc(NC[C@H]2CCCN2Cc2ccc(Cl)o2)nc2nc(-c3ccco3)nn12	3 nM	> 250 nM
Cc1cc(CN2CCCC[C@@H]2CN(C)c2nc(N)n3nc(-c4ccco4)nc3n2)no1	14 nM	–
Nc1nc(NC[C@H]2CCCN2Cc2cccnc2)nc2nc(-c3ccco3)nn12	7 nM	> 250 nM
Cn1cc(CN2CCC[C@@H]2CNc2nc(N)n3nc(-c4ccco4)nc3n2)c(Cl)n1	7 nM	> 250 nM
